Converted amounts (≈) assume the structure as drawn.
Legend:
Type in all cases: cell-based
S. aureus MP-12 = assay: microbe, parasite or virus in culture; details: Staphylococcus aureus, MP12, read-out: MIC S. aureus MP-12
E. coli MP-4 = assay: MIC determination by CLSI broth dilution, E. coli MP-4; details: Escherichia coli, MP4, CLSI broth dilution; strain MP-4
K. pneumoniae MP-546 = assay: MIC determination by CLSI broth dilution, K. pneumoniae MP-546; details: Klebsiella pneumoniae, MP546, CLSI broth dilution; strain MP-546
K. pneumoniae MP-648 = assay: MIC determination by CLSI broth dilution, K. pneumoniae MP-648; details: Klebsiella pneumoniae, MP648, CLSI broth dilution; strain MP-648
P. aeruginosa MP-3 = assay: MIC determination by CLSI broth dilution, P. aeruginosa MP-3; details: Pseudomonas aeruginosa, MP3, strain MP-3
A. baumannii MP-15 = assay: MIC determination by CLSI broth dilution, A. baumannii MP-15; details: Acinetobacter baumannii, MP15, strain MP-15, read-out: MIC A. baumanii MP-15

Compound	MIC (S. aureus MP-12) [µg/mL]	MIC (E. coli MP-4) [µg/mL]	MIC (K. pneumoniae MP-546) [µg/mL]	MIC (K. pneumoniae MP-648) [µg/mL]	MIC (P. aeruginosa MP-3) [µg/mL]	MIC (A. baumannii MP-15) [µg/mL]
CO[C@]1(C)C[C@@H](C)CN(C)[C@@H](CCCN2CCNC(=O)C2)COC(=O)C(C)(C)C(=O)[C@H](C)[C@H]1O[C@@H]1O[C@H](C)C[C@H](N(C)C)[C@H]1O [Compound 115, (3S,6R,8R,9R,10R)-9-(((2S,3R,4S,6R)-4-(dimethylamino)-3-hydroxy-6-methyltetrahydro-2H-pyran-2-yl)oxy)-8-methoxy-4,6,8,10,12,12-hexamethyl-3-(3-(3-oxopiperazin-1-yl)propyl)-1-oxa-4-azacyclotridecane-11,13-dione]	> 32	> 32	> 32	> 32	> 32	> 32
CO[C@]1(C)C[C@@H](C)CN(C)[C@@H](CCCN2CCC[C@@H]2C)COC(=O)C(C)(C)C(=O)[C@H](C)[C@H]1O[C@@H]1O[C@H](C)C[C@H](N(C)C)[C@H]1O [Compound 117, (3S,6R,8R,9R,10R)-9-(((2S,3R,4S,6R)-4-(dimethylamino)-3-hydroxy-6-methyltetrahydro-2H-pyran-2-yl)oxy)-8-methoxy-4,6,8,10,12,12-hexamethyl-3-(3-((S)-2-methylpyrrolidin-1-yl)propyl)-1-oxa-4-azacyclotridecane-11,13-dione]	< 4	< 4	< 4	< 4	> 32	> 32
CCN1CCC(C[C@@H]2COC(=O)C(C)(C)C(=O)[C@H](C)[C@@H](O[C@@H]3O[C@H](C)C[C@H](N(C)C)[C@H]3O)[C@](C)(OC)C[C@@H](C)CN2CC)CC1 [Compound 118, (3R,6R,8R,9R,10R)-9-(((2S,3R,4S,6R)-4-(dimethylamino)-3-hydroxy-6-methyltetrahydro-2H-pyran-2-yl)oxy)-4-ethyl-3-((1-ethylpiperidin-4-yl)methyl)-8-methoxy-6,8,10,12,12-pentamethyl-1-oxa-4-azacyclotridecane-11,13-dione]	4 to 32 (≈ 6.25 to 50 µM)	< 4	< 4	< 4	> 32	4 to 32 (≈ 6.25 to 50 µM)
CO[C@]1(C)C[C@@H](C)CN(C)[C@@H](CCCN2CCc3ccccc3C2)COC(=O)C(C)(C)C(=O)[C@H](C)[C@H]1O[C@@H]1O[C@H](C)C[C@H](N(C)C)[C@H]1O [Compound 120, (3S,6R,8R,9R,10R)-3-(3-(3,4-dihydroisoquinolin-2 (1H)-yl)propyl)-9-(((2S,3R,4S,6R)-4-(dimethylamino)-3-hydroxy-6-methyltetrahydro-2H-pyran-2-yl)oxy)-8-methoxy-4,6,8,10,12,12-hexamethyl-1-oxa-4-azacyclotridecane-11,13-dione]	< 4	< 4	< 4	< 4	> 32	4 to 32 (≈ 5.94 to 47.5 µM)
CO[C@]1(C)C[C@@H](C)CN(CC(C)C)[C@@H](CCCN2CCCCC2)COC(=O)C(C)(C)C(=O)[C@H](C)[C@H]1O[C@@H]1O[C@H](C)C[C@H](N(C)C)[C@H]1O [Compound 121, (3S,6R,8R,9R,10R)-9-(((2S,3R,4S,6R)-4-(dimethylamino)-3-hydroxy-6-methyltetrahydro-2H-pyran-2-yl)oxy)-4-isobutyl-8-methoxy-6,8,10,12,12-pentamethyl-3-(3-(piperidin-1-yl)propyl)-1-oxa-4-azacyclotridecane-11,13-dione]	4 to 32 (≈ 5.99 to 47.9 µM)	< 4	4 to 32 (≈ 5.99 to 47.9 µM)	4 to 32 (≈ 5.99 to 47.9 µM)	> 32	> 32
CO[C@]1(C)C[C@@H](C)CN(C)[C@@H](CCCN2CCC[C@H]2C)COC(=O)C(C)(C)C(=O)[C@H](C)[C@H]1O[C@@H]1O[C@H](C)C[C@H](N(C)C)[C@H]1O [Compound 122, (3S,6R,8R,9R,10R)-9-(((2S,3R,4S,6R)-4-(dimethylamino)-3-hydroxy-6-methyltetrahydro-2H-pyran-2-yl)oxy)-8-methoxy-4,6,8,10,12,12-hexamethyl-3-(3-((R)-2-methylpyrrolidin-1-yl)propyl)-1-oxa-4-azacyclotridecane-11,13-dione]	4 to 32 (≈ 6.39 to 51.1 µM)	< 4	< 4	< 4	> 32	> 32
